Source: patent US9796711B2, “Substituted pyrazolo[3,4-b]pyridin-6-carboxylic acids and method of use” (AbbVie S.àr.l., priority 2015, dated 2017)

Assays:
[1] = target: T1, ΔF508-CFTR (Homo sapiens, UniProt P13569, DEL508-508); assay: CFTR cell surface levels using HRP-tagged ΔF508-CFTR expressing CFBE cells, intrinsic corrector capacity; assay type: cell-based; settings: HRP-tagged ΔF508-CFTR expressing CFBE cells, intrinsic corrector capacity (no co-corrector), 33° C., 20 hours; for EC50: read-out: EC50
T1 construct: host or cells: CFBE41o-, doxycycline-inducible
T1 sequence (P13569 with tags, fused parts or gaps DEL508-508): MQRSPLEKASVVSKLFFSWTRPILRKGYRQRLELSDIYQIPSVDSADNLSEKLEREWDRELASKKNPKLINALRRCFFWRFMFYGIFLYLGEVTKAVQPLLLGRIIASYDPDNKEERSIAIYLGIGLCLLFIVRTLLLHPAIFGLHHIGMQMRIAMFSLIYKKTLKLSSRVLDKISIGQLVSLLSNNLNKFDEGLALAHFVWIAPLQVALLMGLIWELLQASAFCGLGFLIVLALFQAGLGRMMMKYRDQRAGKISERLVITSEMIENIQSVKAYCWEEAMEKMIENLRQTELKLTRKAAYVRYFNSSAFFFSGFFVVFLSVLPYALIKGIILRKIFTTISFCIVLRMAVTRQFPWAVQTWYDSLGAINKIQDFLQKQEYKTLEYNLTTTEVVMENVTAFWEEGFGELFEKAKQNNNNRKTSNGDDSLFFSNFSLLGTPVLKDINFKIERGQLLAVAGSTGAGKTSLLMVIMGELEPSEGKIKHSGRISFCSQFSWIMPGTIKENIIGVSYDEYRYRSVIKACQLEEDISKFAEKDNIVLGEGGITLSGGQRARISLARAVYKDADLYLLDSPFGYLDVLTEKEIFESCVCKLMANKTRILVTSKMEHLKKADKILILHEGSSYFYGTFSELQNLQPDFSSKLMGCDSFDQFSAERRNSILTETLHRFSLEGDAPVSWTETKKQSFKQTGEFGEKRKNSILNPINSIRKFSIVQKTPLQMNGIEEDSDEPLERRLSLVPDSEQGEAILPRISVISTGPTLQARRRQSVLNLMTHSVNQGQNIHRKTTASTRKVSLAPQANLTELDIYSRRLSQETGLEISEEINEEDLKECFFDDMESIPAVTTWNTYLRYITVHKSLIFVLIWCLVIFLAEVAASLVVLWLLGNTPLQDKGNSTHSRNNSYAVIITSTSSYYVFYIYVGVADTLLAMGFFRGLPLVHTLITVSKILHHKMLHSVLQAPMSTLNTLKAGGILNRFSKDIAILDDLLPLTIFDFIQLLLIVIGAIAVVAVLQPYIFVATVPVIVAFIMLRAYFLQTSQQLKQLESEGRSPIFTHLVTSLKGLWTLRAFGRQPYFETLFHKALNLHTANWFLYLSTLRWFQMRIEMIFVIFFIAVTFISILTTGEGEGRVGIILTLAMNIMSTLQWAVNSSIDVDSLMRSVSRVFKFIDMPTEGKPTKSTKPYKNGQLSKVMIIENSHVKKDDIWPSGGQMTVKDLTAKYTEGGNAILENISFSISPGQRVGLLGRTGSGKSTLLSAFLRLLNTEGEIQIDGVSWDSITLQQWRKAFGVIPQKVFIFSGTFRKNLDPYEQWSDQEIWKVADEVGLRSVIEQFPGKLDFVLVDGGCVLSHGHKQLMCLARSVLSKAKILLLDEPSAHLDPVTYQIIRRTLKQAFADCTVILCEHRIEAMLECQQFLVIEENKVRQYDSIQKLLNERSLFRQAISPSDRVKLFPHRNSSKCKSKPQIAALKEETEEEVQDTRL
Outline: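 Here the cells express ΔF508-CFTR with horseradish peroxidase inserted in extracellular loop 4, so only rescued channel at the surface gives luminescent signal. Compounds act on their own, 20 h at the reduced temperature of 33 °C; values are percent activity relative to DMSO and a 3 μM corrector.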

[2] = target: T1, ΔF508-CFTR; assay: CFTR cell surface levels using HRP-tagged ΔF508-CFTR expressing CFBE cells, in the presence of a co-corrector; assay type: cell-based; settings: HRP-tagged ΔF508-CFTR expressing CFBE cells, in the presence of 3 μM co-corrector; for EC50: read-out: EC50
Outline: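 Cells were seeded with 0.5 μg/mL doxycycline and held 68 h at 37 °C. Test compounds plus 3 μM co-corrector (final 0.1% DMSO) were then added for 20 h at 33 °C. Washed cells received HRP substrate, and luminescence was normalized between DMSO and 3 μM co-corrector controls.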

| Compound | % Activation [1] [%] | EC50 [1] [µM] | % Activation [2] [%] | EC50 [2] [µM] |
| --- | --- | --- | --- | --- |
| O=C(O)c1cc(OC[C@H](F)C2CCOCC2)c2c(C3CCC3)nn(-c3ccccc3)c2n1 [compound 434, 3-cyclobutyl-4-[(2R)-2-fluoro-2-(oxan-4-yl)ethoxy]-1-phenyl-1H-pyrazolo[3,4-b]pyridine-6-carboxylic acid] | 154.17 | 0.581 | 342.8 | 0.328 |
| O=C(O)c1cc(OCC2CCC(F)(F)C2)c2c(C3CCC3)nn(-c3ccccc3)c2n1 (stereo not drawn) [compound 435, 3-cyclobutyl-4-[(3,3-difluorocyclopentyl)methoxy]-1-phenyl-1H-pyrazolo[3,4-b]pyridine-6-carboxylic acid] | 116.7 | 0.773 | 290.05 | 0.453 |
| O=C(O)c1cc(OCCN2CCS(=O)(=O)CC2)c2c(C3CCC3)nn(-c3ccccc3)c2n1 [compound 436, 3-cyclobutyl-4-[2-(1,1-dioxo-lλ^6,4-thiazinan-4-yl)ethoxy]-1-phenyl-1H-pyrazolo[3,4-b]pyridine-6-carboxylic acid] | 24.16 | 4.17 | 157.15 | 2.51 |
| CC(C)c1nn(-c2ccnc(N3CCOCC3)c2)c2nc(C(=O)O)cc(-c3ccc(N4CCC(C#N)CC4)nc3)c12 [compound 437, 4-[6-(4-cyanopiperidin-1-yl)pyridin-3-yl]-1-[2-(morpholin-4-yl)pyridin-4-yl]-3-(propan-2-yl)-1H-pyrazolo[3,4-b]pyridine-6-carboxylic acid] | 247.47 | 1.23 | 419.53 | 0.795 |
| COC(C)(C)C1CCN(c2cc(C(=O)O)nc3c2c(C(C)C)nn3-c2ccc(F)cc2)CC1 [compound 438, 1-(4-fluorophenyl)-4-[4-(2-methoxypropan-2-yl)piperidin-1-yl]-3-(propan-2-yl)-1H-pyrazolo[3,4-b]pyridine-6-carboxylic acid] | 277.03 | 0.331 | 507.27 | 0.387 |
| CN(c1cc(C(=O)O)nc2c1c(C1CCC1)nn2-c1ccccc1)[C@H]1C[C@@H](OC(C)(C)C)C1 [compound 439, 4-[(cis-3-tert-butoxycyclobutyl)(methyl)amino]-3-cyclobutyl-1-phenyl-1H-pyrazolo[3,4-b]pyridine-6-carboxylic acid] | 120.85 | 1.12 | 312.85 | 1.11 |
| CC1CN(c2cc(C(=O)O)nc3c2c(C2CCC2)nn3-c2ccccc2)C1 [compound 440, 3-cyclobutyl-4-(3-methylazetidin-1-yl)-1-phenyl-1H-pyrazolo[3,4-b]pyridine-6-carboxylic acid] | 104.7 | 1.92 | 308.95 | 1.93 |
| O=C(O)c1cc(N2CCC(F)(F)C2)c2c(C3CCC3)nn(-c3ccccc3)c2n1 [compound 441, 3-cyclobutyl-4-(3,3-difluoropyrrolidin-1-yl)-1-phenyl-1H-pyrazolo[3,4-b]pyridine-6-carboxylic acid] | 111.85 | 2.05 | 289.75 | 1.51 |
| O=C(O)c1cc(N2CCC(C(F)(F)F)C2)c2c(C3CCC3)nn(-c3ccccc3)c2n1 (stereo not drawn) [compound 442, 3-cyclobutyl-1-phenyl-4-[3-(trifluoromethyl)pyrrolidin-1-yl]-1H-pyrazolo[3,4-b]pyridine-6-carboxylic acid] | 137.7 | 1.07 | 321.95 | 0.655 |
| O=C(O)c1cc(N2CCC(N3CCCC3)CC2)c2c(C3CCC3)nn(-c3ccccc3)c2n1 [compound 443, 3-cyclobutyl-1-phenyl-4-[4-(pyrrolidin-1-yl)piperidin-1-yl]-1H-pyrazolo[3,4-b]pyridine-6-carboxylic acid] | 146.9 | 2.3 | 317.25 | 1.47 |
| O=C(O)c1cc(N2CCC(F)CC2)c2c(C3CCC3)nn(-c3ccccc3)c2n1 [compound 444, 3-cyclobutyl-4-(4-fluoropiperidin-1-yl)-1-phenyl-1H-pyrazolo[3,4-b]pyridine-6-carboxylic acid] | 111.15 | 1.11 | 282.8 | 0.543 |
| O=C(O)c1cc(N2C[C@H](O)[C@@H](O)C2)c2c(C3CCC3)nn(-c3ccccc3)c2n1 [compound 446, 3-cyclobutyl-4-[(3S,4S)-3,4-dihydroxypyrrolidin-1-yl]-1-phenyl-1H-pyrazolo[3,4-b]pyridine-6-carboxylic acid] | 20.695 | > 10 | 171.35 | 3.34 |
| CN(C)CCC1CCN(c2cc(C(=O)O)nc3c2c(C2CCC2)nn3-c2ccccc2)CC1 [compound 447, 3-cyclobutyl-4-{4-[2-(dimethylamino)ethyl]piperidin-1-yl}-1-phenyl-1H-pyrazolo[3,4-b]pyridine-6-carboxylic acid] | 243.3 | 1.12 | 415.6 | 0.724 |
| CCN(CC)CCC1CCN(c2cc(C(=O)O)nc3c2c(C2CCC2)nn3-c2ccccc2)CC1 [compound 448, 3-cyclobutyl-4-{4-[2-(diethylamino)ethyl]piperidin-1-yl}-1-phenyl-1H-pyrazolo[3,4-b]pyridine-6-carboxylic acid] | 239.2 | 1.08 | 387.15 | 0.646 |
| O=C(O)c1cc(N2CCN(CC3CC3)CC2)c2c(C3CCC3)nn(-c3ccccc3)c2n1 [compound 449, 3-cyclobutyl-4-[4-(cyclopropylmethyl)piperazin-1-yl]-1-phenyl-1H-pyrazolo[3,4-b]pyridine-6-carboxylic acid] | 139.3 | 1.35 | 298.55 | 0.918 |
| O=C(O)c1cc(N2CCN(C3CCC3)CC2)c2c(C3CCC3)nn(-c3ccccc3)c2n1 [compound 450, 3-cyclobutyl-4-(4-cyclobutylpiperazin-1-yl)-1-phenyl-1H-pyrazolo[3,4-b]pyridine-6-carboxylic acid] | 165.85 | 1.09 | 377.1 | 0.456 |
| CC1(F)CN(c2cc(C(=O)O)nc3c2c(C2CCC2)nn3-c2ccccc2)C1 [compound 451, 3-cyclobutyl-4-(3-fluoro-3-methylazetidin-1-yl)-1-phenyl-1H-pyrazolo[3,4-b]pyridine-6-carboxylic acid] | 71.425 | 1.29 | 234.95 | 0.874 |
| O=C(O)c1cc(N2CCC3(CCCC3)CC2)c2c(C3CCC3)nn(-c3ccccc3)c2n1 [compound 452, 4-(8-azaspiro[4.5]decan-8-yl)-3-cyclobutyl-1-phenyl-1H-pyrazolo[3,4-b]pyridine-6-carboxylic acid] | 74.98 | 1.11 | 282.3 | 1.11 |
| O=C(O)c1cc(N2CCC3(CC2)CC(F)(F)CO3)c2c(C3CCC3)nn(-c3ccccc3)c2n1 [compound 453, 3-cyclobutyl-4-(3,3-difluoro-1-oxa-8-azaspiro[4.5]decan-8-yl)-1-phenyl-1H-pyrazolo[3,4-b]pyridine-6-carboxylic acid] | 110.68 | 0.716 | 275.35 | 0.656 |
| CN1CCC(C2CCN(c3cc(C(=O)O)nc4c3c(C3CCC3)nn4-c3ccccc3)CC2)CC1 [compound 454, 3-cyclobutyl-4-(1′-methyl[4,4′-bipiperidin]-1-yl)-1-phenyl-1H-pyrazolo[3,4-b]pyridine-6-carboxylic acid] | 253.5 | 0.998 | 470.3 | 0.636 |
| CN(C)C[C@H](F)C1CCN(c2cc(C(=O)O)nc3c2c(C2CCC2)nn3-c2ccccc2)CC1 [compound 455, 3-cyclobutyl-4-{4-[(1R)-2-(dimethylamino)-1-fluoroethyl]piperidin-1-yl}-1-phenyl-1H-pyrazolo[3,4-b]pyridine-6-carboxylic acid] | 288.4 | 1.11 | 421.5 | 0.452 |
| O=C(O)c1cc(N2CCC([C@H](F)CO)CC2)c2c(C3CCC3)nn(-c3ccccc3)c2n1 [compound 457, 3-cyclobutyl-4-{4-[(1S)-1-fluoro-2-hydroxyethyl]piperidin-1-yl}-1-phenyl-1H-pyrazolo[3,4-b]pyridine-6-carboxylic acid] | 240.3 | 0.607 | 430.85 | 0.392 |
| O=C(O)c1cc(N2CCC([C@@H](F)CO)CC2)c2c(C3CCC3)nn(-c3ccccc3)c2n1 [compound 458, 3-cyclobutyl-4-{4-[(1R)-1-fluoro-2-hydroxyethyl]piperidin-1-yl}-1-phenyl-1H-pyrazolo[3,4-b]pyridine-6-carboxylic acid] | 216.4 | 0.485 | 399.6 | 0.278 |
| COCCOCC1(F)CCN(c2cc(C(=O)O)nc3c2c(C2CCC2)nn3-c2ccccc2)CC1 [compound 459, 3-cyclobutyl-4-{4-fluoro-4-[(2-methoxyethoxy)methyl]piperidin-1-yl}-1-phenyl-1H-pyrazolo[3,4-b]pyridine-6-carboxylic acid] | 152.05 | 0.653 | 319.8 | 0.38 |
